Data as given in patent publication US20190177421A1, “CHIMERIC ANTIGEN RECEPTORS AND METHODS FOR USE” (Poseida Therapeutics, Inc., priority 2016, published 2019).
Like-named read-outs stand apart in the source and are kept apart here.

Columns and labels:
cells [1] = experiment: Amount of AP1903 needed in vitro for effective signaling of cells; assay type: cell-based; conditions: calculated with 1600 Da MW
Experimental: The fixed dose of AP1903 for injection used, for example, may be 0.4 mg/kg intravenously infused over 2 hours. The amount of AP1903 needed in vitro for effective signaling of cells is 10-100 nM (1600 Da MW). This equates to 16-160 μg/L or 0.016-1.6 μg/kg (1.6-160 μg/kg). Doses up to 1 mg/kg were well-tolerated in the Phase I study of AP1903 described above. Therefore, 0.4 mg/kg may be a safe and effective dose of AP1903 for this Phase I study in combination with the therapeutic cells.

[2] = test system: human pan T-cells containing the iC9 construct; experiment: iC9 safety switch test: viability by flow cytometry using 7-AAD; assay type: cell-based; conditions: 24 hours incubation, 0-1000 nM tested, cells with iC9 safety switch
Description: Human pan T-cells were nucleofected using an Amaxa 4D nucleofector with one of four piggyBac transposons. Modified T cells receiving the “mock” condition were nucleofected with an empty piggyBac transposon. Modified T cells received either a piggyBac transposon containing a therapeutic agent alone (a sequence encoding a CARTyrin) or a piggyBac transposon containing an integrated iC9 sequence and a therapeutic agent (a sequence encoding a CARTyrin).
To test the iC9 safety switch, each of the four modified T cells were incubated for 24 hours with 0, 0.1 nM, 1 nM, 10 nM, 100 nM or 1000 nM AP1903 (an induction agent for […]). Viability was assessed by flow cytometry using 7-aminoactinomycin D (7-AAD), a fluorescent intercalator, as a marker for cells undergoing apoptosis.

cells [3] = conditions: cited from earlier work
[4] = cited from earlier work
human primary T cells = experiment: In vitro CARTyrin surface expression in T cells; assay type: cell-based; conditions: following lentiviral transduction of human primary T cells
Description: Characterization further assays correlations with functionality.

tumor = experiment: In vivo tumor challenge study in mice
Description: FIG. 6 is a schematic diagram depicting an in vivo tumor challenge study timeline using the A08 CARTyrin in mice.
FIG. 6 depicts the treatment schedule for an in vivo study in mice using the A08 CARTyrin. […] FIG. 8 provides a series of photographs further illustrating tumor burden in control animal as well as those treated with P-BCMA-101.

Experimental for BCMA+ tumor cells: Functionality of CARTyrin-expressing T cells was measured by degranulation against tumor lines.

| Compound | amount needed for effective signaling, equated to dose (cells [1]) | amount needed for effective signaling, equated to mass concentration (cells [1]) | concentration at which apoptosis is induced [2] | amount needed in vitro for effective signaling of cells (cells [3]) | plasma level as % of maximal concentration ([4]; 0.5 hours post-dose) | plasma level as % of maximal concentration ([4]; 2 hours post-dose) | plasma level as % of maximal concentration ([4]; 10 hours post-dose) | well-tolerated doses ([4]; Phase I study, IV) | mean Cmax ([4]; single doses infused IV over 2 hours, 0.01-1.0 mg/kg dose range, plasma) | surface expression (human primary T cells) | tumor burden assessed by M-protein abundance (tumor; day 21) | tumor burden assessed by M-protein abundance (tumor; day 21, listed as P-BCMA-101) | tumor burden compared to controls (tumor; photographs) | survival (tumor; to day 21) | cytotoxic function (e.g. proliferation) (BCMA+ tumor cells) |
| --- | --- | --- | --- | --- | --- | --- | --- | --- | --- | --- | --- | --- | --- | --- | --- |
| CC[C@H](C(=O)N1CCCC[C@H]1C(=O)O[C@H](CCc1ccc(OC)c(OC)c1)c1cccc(OCC(=O)NCCNC(=O)COc2cccc([C@@H](CCc3ccc(OC)c(OC)c3)OC(=O)[C@@H]3CCCCN3C(=O)[C@@H](CC)c3cc(OC)c(OC)c(OC)c3)c2)c1)c1cc(OC)c(OC)c(OC)c1 (relative stereo) [AP1903, 2-Piperidinecarboxylic acid, 1-[(2S)-1-oxo-2-(3,4,5-trimethoxyphenyl)butyl]-, 1,2-ethanediylbis[imino(2-oxo-2,1-ethanediyl)oxy-3,1-phenylene[(1R)-3-(3,4-dimethoxyphenyl)propylidene]]ester, [2S-[1(R*),2R*[S*[S*[1(R*),2R*]]]]]-(9Cl)] | 0.016 to 1.6 µg/kg | 16 to 160 µg/L | ≤ 0.1 nM | 10 to 100 nM | approximately 18% | ~7% | ~1% | up to 1 mg/kg | 10 to 1275 ng/mL |  |  |  |  |  |  |
| A08 CARTyrin: anti-BCMA CARTyrin (CAR comprising a Centyrin), SEQ ID NO: 21; P-BCMA-101 encodes the A08 anti-BCMA CARTyrin |  |  |  |  |  |  |  |  |  | high levels of surface expression | no detectable M-protein | not detectable | reduce tumor burden | 100% | strong cytotoxic function |
